From patent US8178506B2, “Oligomeric compounds and compositions for use in modulation of small non-coding RNAs” (Regulus Therapeutics Inc., priority 2003, dated 2012)
In the oligonucleotide strings, read from the 5' end, every base follows the letter of its sugar. An asterisk marks phosphorothioate; unmarked linkages are phosphodiester. Other units and linkages are bracketed, terminal groups are in braces. A string of capitals states the bases alone. e = 2'-O-(2-methoxyethyl) (MOE); [5mC] = 5-methylcytosine; d = 2'-deoxy (DNA)

Assays:
[1] = system: IGFBP-1; experiment: IGFBP-1 mRNA expression in HepG2 cells; type: cell-based, human; conditions: for IGFBP1 mRNA: Experiment 1, basal (no insulin), four hours, UTC = 100; for IGFBP1 mRNA expression: Experiment 2, insulin treated: HepG2 cells transfected with oligomeric compound, 1 nM insulin for four hours, UTC + 1 nM insulin = 100
Method: Approximately 28 hours after transfection, the cells are subjected to serum starvation for a period of 12 to 16 hours, using serum-free growth medium. Following serum starvation, cells are treated with 1 nM insulin (insulin-treated) or are left untreated (basal conditions) for approximately four hours. At the same time, untreated control cells in both plates are treated with 100 nM insulin to determine the maximal insulin response. Following insulin treatment (forty-eight hours after transfection), total RNA is harvested from all samples, and the amount of total RNA from each sample is determined using a Ribogreen assay (Invitrogen Corporation, Carlsbad, Calif.). Real-time PCR is performed on the total RNA samples using primer/probe sets for three insulin responsive genes: insulin-like growth factor binding protein-1 (IGFBP-1), cytosolic PEPCK (PEPCK-C), and follistatin. Gene expression levels obtained by real-time PCR are normalized for total RNA content in the samples.
Oligomeric compounds of the present invention were tested for their effects on insulin signaling in HepG2 cells. HepG2 cells were plated at 7500 cells/well in collagen coated 96-well plates. The following day, cells were transfected with oligomeric compounds targeting miRNAs using 100 nM oligomeric compound in LIPOFECTIN™ (Invitrogen Corporation, Carlsbad, Calif.) in two 96-well plates. The oligomeric compounds were tested in triplicate on each 96-well plate, except for positive and negative controls, which were measured up to six times per plate. At the end of transfection, the transfection medium was replaced by regular growth medium. Twenty-eight hours post-transfection, the cells were subjected to overnight (sixteen to eighteen hours) serum starvation using serum free growth medium. Forty-four hours post-transfection, the cells in the transfected wells were treated with either no insulin (“basal” Experiment 1, for identification of insulin-mimetic compounds) or with 1 nM insulin (“insulin treated” Experiment 2, for identification of insulin sensitizers) for four hours. At the same time, in both plates, cells in some of the un-transfected control wells are treated with 100 nM insulin to determine maximal insulin response. At the end of the insulin or no-insulin treatment (forty-eight hours post-transfection), total RNA is isolated from both the basal and insulin treated (1 nM) 96-well plates, and the amount of total RNA from each sample is determined using a Ribogreen assay (Molecular Probes, Eugene, Oreg.). Real-time PCR is performed on all the total RNA samples using primer/probe sets for three insulin responsive genes: PEPCK-c, IGFBP-1 and follistatin. Expression levels for each gene are normalized to total RNA, and values+standard deviation are expressed relative to the transfectant only untreated control (UTC) and negative control compounds.
Protocols for treatment of HepG2 cells and transfection of oligomeric compounds are as described in Example 18. Also as described in Example 18, forty-four hours post-transfection, the cells in the transfected wells were treated with either no insulin (“basal” Experiment 3 (below), for identification of insulin-mimetic compounds) or with 1 nM insulin (“insulin treated” Experiment 4 (below), for identification of insulin sensitizers) for four hours. At the same time, in both plates, cells in some of the un-transfected control wells are treated with 100 nM insulin to determine maximal insulin response. At the end of the insulin or no-insulin treatment (forty-eight hours post-transfection), total RNA is isolated from both the basal and insulin treated (1 nM) 96-well plates, and the amount of total RNA from each sample is determined using a Ribogreen assay (Molecular Probes, Eugene, Oreg.).

[2] = system: BJ, B16-F10, T47D, T47Dp53 and HeLa cells; experiment: Cell cycle assay (propidium iodide flow cytometry), cell line panel; type: cell-based; conditions: 150 nM oligomeric compound, 4.5 μg/ml LIPOFECTIN, after 72 hours, propidium iodide flow cytometry
[3] = Experiment 3, basal (no insulin), HepG2 cells, 48 hours post-transfection
[4] = Experiment 4, insulin-sensitization: HepG2 cells treated with 1 nM insulin for four hours, 48 h post-transfection, mRNA by real-time PCR

Substance | IGFBP1 mRNA ([1]; HepG2 cells) | IGFBP1 mRNA expression [1] | G1 (percentage of cells in phase of the cell cycle) [2] | G2/M (percentage of cells in phase of the cell cycle) [2] | S (percentage of cells in phase of the cell cycle) [2] | SubG1 (percentage of cells in phase of the cell cycle) [2] | aneuploid (percentage of cells) [2] | also measured
327885 (antisense eA*e[5mC]*eT*eA*e[5mC]*e[5mC]*eT*eG*e[5mC]*eA*e[5mC]*eT*eG*eT*eA*eA*eG*e[5mC]*eA*e[5mC]*eT*eT*eT*eG) [compound 327885] | 161 | – | – | – | – | – | – | –
327886 (antisense e[5mC]*eG*e[5mC]*eG*eT*eA*e[5mC]*e[5mC]*eA*eA*eA*eA*eG*eT*eA*eA*eT*eA*eA*eT*eG) [compound 327886] | 176 | – | – | – | – | – | – | –
327887 (antisense eG*e[5mC]*eG*eA*e[5mC]*e[5mC]*eA*eT*eG*eG*e[5mC]*eT*eG*eT*eA*eG*eA*e[5mC]*eT*eG*eT*eT*eA) [compound 327887] | 119 | – | – | – | – | – | – | –
327895 (antisense eA*e[5mC]*eA*eA*eA*e[5mC]*eA*e[5mC]*e[5mC]*eA*eT*eT*eG*eT*e[5mC]*eA*e[5mC]*eA*e[5mC]*eT*e[5mC]*e[5mC]*eA) [compound 327895] | 108 | – | – | – | – | – | – | –
327897 (antisense eA*e[5mC]*eA*eG*eG*e[5mC]*e[5mC]*eG*eG*eG*eA*e[5mC]*eA*eA*eG*eT*eG*e[5mC]*eA*eA*eT*eA) [compound 327897] | 163 | 243 | – | – | – | – | – | –
327899 (antisense e[5mC]*eA*eG*eT*eG*eA*eA*eT*eT*e[5mC]*eT*eA*e[5mC]*e[5mC]*eA*eG*eT*eG*e[5mC]*e[5mC]*eA*eT*eA) [compound 327899] | 105 | – | – | – | – | – | – | –
327900 (antisense e[5mC]*eT*eG*e[5mC]*e[5mC]*eT*eG*eT*e[5mC]*eT*eG*eT*eG*e[5mC]*e[5mC]*eT*eG*e[5mC]*eT*eG*eT) [compound 327900] | 102 | – | – | – | – | – | – | –
327902 (antisense eG*eG*e[5mC]*eT*eG*eT*e[5mC]*eA*eA*eT*eT*e[5mC]*eA*eT*eA*eG*eG*eT*e[5mC]*eA*eG) [compound 327902] | – | – | 50.7% | 15.3% | 33.9% | 10.6% | 13.4% | –
327904 (antisense eA*e[5mC]*eT*e[5mC]*eA*e[5mC]*e[5mC]*eG*eA*e[5mC]*eA*eG*e[5mC]*eG*eT*eT*eG*eA*eA*eT*eG*eT*eT) [compound 327904] | – | – | 54.4% | 16.2% | 29.5% | 8.6% | 15.6% | –
327906 (antisense eT*e[5mC]*eA*eT*eA*eG*e[5mC]*e[5mC]*e[5mC]*eT*eG*eT*eA*e[5mC]*eA*eA*eT*eG*e[5mC]*eT*eG*e[5mC]*eT) [compound 327906] | – | – | 46.1% | 20.9% | 33% | 15.2% | 15.8% | –
327907 (antisense eA*eG*e[5mC]*e[5mC]*eT*eA*eT*e[5mC]*e[5mC]*eT*eG*eG*eA*eT*eT*eA*e[5mC]*eT*eT*eG*eA*eA) [compound 327907] | – | – | 49.5% | 17.6% | 32.8% | 17.8% | 17.8% | –
327910 (antisense eT*eG*eA*eT*eA*eG*e[5mC]*e[5mC]*e[5mC]*eT*eG*eT*eA*e[5mC]*eA*eA*eT*eG*e[5mC]*eT*eG*e[5mC]*eT) [compound 327910] | – | – | 49.5% | 17.5% | 33% | 9.3% | 13.1% | –
327916 (antisense eT*eG*eG*e[5mC]*eA*eT*eT*e[5mC]*eA*e[5mC]*e[5mC]*eG*e[5mC]*eG*eT*eG*e[5mC]*e[5mC]*eT*eT*eA*eA) [compound 327916] | 102 | 128 | – | – | – | – | – | –
327918 (antisense e[5mC]*eT*eA*eG*eT*eA*e[5mC]*eA*eT*e[5mC]*eA*eT*e[5mC]*eT*eA*eT*eA*e[5mC]*eT*eG*eT*eA) [compound 327918] | 95 | 81 | – | – | – | – | – | –
327920 (antisense eG*eA*eG*eA*e[5mC]*e[5mC]*e[5mC]*eA*eG*eT*eA*eG*e[5mC]*e[5mC]*eA*eG*eA*eT*eG*eT*eA*eG*e[5mC]*eT) [compound 327920] | 165 | 267 | – | – | – | – | – | –
327923 (antisense eG*eA*eA*eA*eG*eA*eG*eA*e[5mC]*e[5mC]*eG*eG*eT*eT*e[5mC]*eA*e[5mC]*eT*eG*eT*eG*eA) [compound 327923] | 116 | 119 | – | – | – | – | – | –
327928 (antisense eA*eA*e[5mC]*e[5mC]*eG*eA*eT*eT*eT*e[5mC]*eA*eG*eA*eT*eG*eG*eT*eG*e[5mC]*eT*eA*eG) [compound 327928] | – | – | 56% | 16% | 27.9% | 6.6% | 15.9% | –
327951 (antisense e[5mC]*eA*e[5mC]*eA*eA*eA*e[5mC]*e[5mC]*eA*eT*eT*eA*eT*eG*eT*eG*e[5mC]*eT*eG*e[5mC]*eT*eA) [compound 327951] | – | – | 60.9% | 14.3% | 24.8% | 4.3% | 16.7% | –
328114 (antisense eA*eA*eT*e[5mC]*eT*e[5mC]*eA*eT*eT*eT*eT*e[5mC]*eA*eT*eA*e[5mC]*eT*eT*eG*e[5mC]*eA) [compound 328114] | – | 177 | – | – | – | – | – | –
328115 (antisense eA*eG*eA*eA*eG*eG*eT*eG*eG*eG*eG*eA*eG*e[5mC]*eA*eG*e[5mC]*eG*eT*e[5mC]*eA) [compound 328115] | – | 120 | – | – | – | – | – | –
328125 (antisense eT*eA*eT*eG*eA*eA*eA*eT*eG*e[5mC]*e[5mC]*eA*eG*eA*eG*e[5mC]*eT*eG*e[5mC]*e[5mC]*eA) [compound 328125] | – | 216 | – | – | – | – | – | –
328362 (eT*eG*eT*eG*eT*dT*dT*dT*d[5mC]*dT*dG*dA*d[5mC]*dT*d[5mC]*eA*eG*eT*e[5mC]*eA) [compound 328362] | – | – | 51.2% | 15.1% | 33.6% | 9.1% | 12.9% | –
328677 (eT*e[5mC]*e[5mC]*eT*eG*dG*dA*dT*dG*dA*dT*dA*dT*d[5mC]*dT*eA*e[5mC]*e[5mC]*eT*e[5mC]; antisense) [compound 328677] | – | – | – | – | – | – | – | IGFBP-1 (% UTC) [1, 3]: 208 % UTC; IGFBP-1 (% UTC) [1, 4]: 159 % UTC
328685 (e[5mC]*eG*eG*e[5mC]*e[5mC]*dG*dG*dA*dG*d[5mC]*d[5mC]*dA*dT*dA*dG*eA*e[5mC]*eT*e[5mC]*eG; antisense) [compound 328685] | – | – | – | – | – | – | – | IGFBP-1 (% UTC) [1, 3]: 157 % UTC; IGFBP-1 (% UTC) [1, 4]: 143 % UTC
328759 (antisense eG*eA*eG*eG*eG*dA*dT*dT*dG*dT*dA*dT*dG*dA*dA*e[5mC]*eA*eT*e[5mC]*eT) [compound 328759] | – | – | – | – | – | – | – | IGFBP-1 (% UTC) [1, 3]: 356 % UTC; IGFBP-1 (% UTC) [1, 4]: 212 % UTC
341800 (antisense AAGCCCAAAAGGAGAAUUCUUUG; all 2'-MOE, all phosphorothioate, methylation of C and T or U not given here) [compound 341800] | 114 | – | – | – | – | – | – | –
